Laboratory results taken from PMC12723449, “From Pharmacophore to Warhead: NAD^+‐Targeting Triazoles as Mechanism‐Based Sirtuin Inhibitors” (Angewandte Chemie (International Ed. in English), 2025).

T1: SIRT1 (Homo sapiens, UniProt Q96EB6)
T1 construct: For assay experiments, strep-tagged human SIRT1134−747 and SIRT256-356 were expressed and purified as previously; Strep-tag; made in house; host or cells: E. coli BL21 Star (DE3)
T1 sequence (Q96EB6 134-747 limits assumed): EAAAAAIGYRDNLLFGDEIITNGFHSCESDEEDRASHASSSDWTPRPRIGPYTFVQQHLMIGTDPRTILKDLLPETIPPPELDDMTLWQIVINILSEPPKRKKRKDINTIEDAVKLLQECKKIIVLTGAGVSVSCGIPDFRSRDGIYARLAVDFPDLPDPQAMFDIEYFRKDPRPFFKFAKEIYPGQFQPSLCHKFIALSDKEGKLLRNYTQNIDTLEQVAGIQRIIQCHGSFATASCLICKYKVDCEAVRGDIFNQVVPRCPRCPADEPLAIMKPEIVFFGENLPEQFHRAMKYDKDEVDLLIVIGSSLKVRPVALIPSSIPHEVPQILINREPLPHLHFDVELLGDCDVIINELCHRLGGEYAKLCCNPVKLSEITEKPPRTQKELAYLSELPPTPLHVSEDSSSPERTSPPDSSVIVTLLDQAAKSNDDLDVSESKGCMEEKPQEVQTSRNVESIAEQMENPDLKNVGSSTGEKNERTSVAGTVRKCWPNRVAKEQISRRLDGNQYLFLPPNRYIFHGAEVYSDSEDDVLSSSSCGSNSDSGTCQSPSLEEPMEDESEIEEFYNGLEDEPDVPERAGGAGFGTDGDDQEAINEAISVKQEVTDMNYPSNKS

T2: SIRT2 (Homo sapiens, UniProt Q8IXJ6)
T2 construct: For assay experiments, strep-tagged human SIRT1134−747 and SIRT256-356 were expressed and purified as previously; Strep-tag; made in house; host or cells: E. coli BL21 Star (DE3)
T2 sequence (Q8IXJ6 56-356 limits assumed): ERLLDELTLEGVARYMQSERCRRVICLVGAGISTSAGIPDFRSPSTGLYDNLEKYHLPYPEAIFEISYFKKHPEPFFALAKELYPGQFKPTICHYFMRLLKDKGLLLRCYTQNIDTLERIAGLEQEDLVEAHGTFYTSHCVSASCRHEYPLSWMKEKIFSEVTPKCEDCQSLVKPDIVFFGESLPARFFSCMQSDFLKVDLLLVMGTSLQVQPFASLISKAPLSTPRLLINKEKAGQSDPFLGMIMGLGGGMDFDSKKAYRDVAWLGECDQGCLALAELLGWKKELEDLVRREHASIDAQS

T3: SIRT3 (Homo sapiens, UniProt Q9NTG7)
T3 construct: Human SIRT3118-395 was expressed and purified as previously described.[5]; made in house
T3 sequence (Q9NTG7 118-395 limits assumed): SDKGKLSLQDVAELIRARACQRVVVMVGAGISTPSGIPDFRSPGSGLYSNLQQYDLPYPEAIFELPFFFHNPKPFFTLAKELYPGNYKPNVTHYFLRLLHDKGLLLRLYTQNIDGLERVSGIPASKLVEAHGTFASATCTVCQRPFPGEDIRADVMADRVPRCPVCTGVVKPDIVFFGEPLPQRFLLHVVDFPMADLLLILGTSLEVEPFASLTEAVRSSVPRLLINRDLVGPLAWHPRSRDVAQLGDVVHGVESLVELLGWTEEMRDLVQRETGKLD

T4: NanoLuc–SIRT2 fusion protein in HEK293T cells (Homo sapiens, UniProt Q8IXJ6)
T4 construct: transfected HEK293T cells expressing the NanoLuc-tagged SIRT250-356 fusion protein were used instead of transient; expressed in transfected cells; host or cells: HEK293T (stably transfected)
T4 sequence (Q8IXJ6 50-356 limits assumed): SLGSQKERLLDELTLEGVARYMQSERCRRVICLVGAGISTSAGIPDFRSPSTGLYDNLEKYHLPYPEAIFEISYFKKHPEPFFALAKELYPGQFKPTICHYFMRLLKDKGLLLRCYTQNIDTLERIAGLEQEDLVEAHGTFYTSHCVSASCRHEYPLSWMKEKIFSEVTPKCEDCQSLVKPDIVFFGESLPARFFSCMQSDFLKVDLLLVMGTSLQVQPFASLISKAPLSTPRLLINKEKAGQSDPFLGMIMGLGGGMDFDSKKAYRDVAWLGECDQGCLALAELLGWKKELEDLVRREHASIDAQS

T5: NanoLuc–SIRT2 fusion protein in HEK293T cells (Homo sapiens, UniProt Q8IXJ6)
T5 construct: HEK293T cells stably expressing the NanoLuc-SIRT250-364-fusion target protein were seeded into the coated plates; expressed in transfected cells; host or cells: HEK293T (stably expressing)
T5 sequence (Q8IXJ6 50-364 limits assumed): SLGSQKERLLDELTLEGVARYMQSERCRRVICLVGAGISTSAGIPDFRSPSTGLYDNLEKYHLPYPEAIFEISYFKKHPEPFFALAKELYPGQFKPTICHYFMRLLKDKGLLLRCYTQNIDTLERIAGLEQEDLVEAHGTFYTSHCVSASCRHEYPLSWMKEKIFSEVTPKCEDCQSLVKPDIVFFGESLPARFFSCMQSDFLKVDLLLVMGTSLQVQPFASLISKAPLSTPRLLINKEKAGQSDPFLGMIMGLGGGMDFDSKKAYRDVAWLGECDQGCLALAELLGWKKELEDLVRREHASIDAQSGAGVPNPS


Experiments:
SIRT1 = target: T1, SIRT1; assay: Fluorescence-based deacetylation assay (ZMAL-assay), SIRT1; format: biochemical; settings: 37 °C, assay limit 0.10 µM; for IC50: read-out: SIRT1 (deac.) IC50
Procedure: (§1) Determination of IC50 values (SIRT1, SIRT2, SIRT3) via fluorescence-based deacetylation assay […]
(§2) The fluorescence-based deacetylation assay was conducted in a black 384-well microplate (OptiPlate-384 F, PerkinElmer) with a total volume of 30 µL per well and a final DMSO concentration of 2% (v/v) according to a […]
(§3) concentration of 100 nM) in assay buffer (50 mM Tris, 137 mM NaCl, 2.7 mM KCl, 1m MgCl2, 0.01% Tween, 0.05 mg/mL BSA, 0.2 mM TCEP, pH 8.0), 5 µL of substrate (ZMAL, final concentration of 10.5 µM), 5 µL of NAD+ (final concentration of 500 µM) and 10 µL of inhibitor solution (final concentration of 30 µM – 0.014 µM, serial 1:3 dilutions) was incubated at 37 °C and 300 rpm for 4 h. A solution of trypsin (final concentration of 0.5 mg/mL) and nicotinamide (final concentration of 4 mM) was added and incubated at 37 °C and 300 rpm for 30 min to stop the reaction. Samples with 2% (v/v) DMSO instead of inhibitor were prepared as a positive control, and samples with 2% (v/v) DMSO instead of SIRT enzyme were prepared as a negative control. Fluorescence intensity was measured with a microplate reader (λEx = 380-10 nm, λEm = 460 nm, BMG POLARstar Optima, BMG Labtech, Germany). IC50 values were then determined using a nonlinear regression fit with Origin Pro 2019 software. All experiments were performed at least in duplicates. […]

SIRT2 [1] = target: T2, SIRT2; assay: Fluorescence-based deacetylation assay (ZMAL-assay), SIRT2; format: biochemical; settings: 37 °C, assay limit 0.10 µM, read-out: SIRT2 (deac.) IC50
Procedure: as §1, §2, §3

SIRT3 = target: T3, SIRT3; assay: Fluorescence-based deacetylation assay (ZMAL-assay), SIRT3; format: biochemical; settings: 37 °C, assay limit 0.10 µM; for IC50: read-out: SIRT3 (deac.) IC50
Procedure: as §1, §2, §3

SIRT2 [2] = target: T2, SIRT2; assay: Fluorescence-based demyristoylation assay (BSA-Assay); format: biochemical
Procedure: Determination of IC50 values (SIRT2) via fluorescence-based demyristoylation assay (BSA-Assay) The fluorescence-based demyristoylation assay was conducted in a continuous manner in a black 384-well microplate (OptiPlate-384 F, PerkinElmer) with a total volume of 40 µL per well and a final DMSO concentration of 5% (v/v), following a published procedure.[9] A mixture of 14 µL SIRT2 (final concentration of 1 nM) in assay buffer (20 mM Tris, 150 mM NaCl, […], pH 7.8) freshly supplemented with 2 mg/mL of BSA, 14 µL of substrate (F4, KM = 33 ± 5 nM[9], final concentration of 40 nM) and 2 µL of inhibitor solution (final concentration of 100 µM – 0.002 µM, serial 1:2 or 1:4 dilutions) was incubated at 25 °C and 350 rpm for 5 min. Samples with 5% (v/v) DMSO instead of inhibitor were measured as a positive control, and samples with assay buffer and 5% (v/v) DMSO instead of SIRT2 were measured as a negative control. The reaction was started with the addition of 10 µL NAD+ (final concentration of 500 µM) and the product formation was immediately monitored by the change of the fluorescence intensity at 25 °C for 20 min. For NAD+ preincubation experiments, instead of the substrate, 10 µL of NAD+ (final concentration of 500 µM) was added to the solution and incubated at 25 °C and 350 rpm for 15 min. The reaction was started with the addition of 14 µL substrate (final concentration of 40 nM) and the product formation was immediately monitored by the change of the fluorescence intensity at 25 °C every 60 s for 20 min using a microplate reader (λEx = 485 nm, λEm = 530-10 nm, BMG POLARstar Optima, BMG Labtech, Germany).
The activity was normalized using the positive control as 100% and the negative control as 0%. The normalized activity (v/v0) was plotted as a function of the logarithm of the inhibitor concentration [I], and a nonlinear fit was performed according to the following equation to determine the IC50 value.[9] […]

SIRT2 [3] = target: T2, SIRT2; assay: Differential scanning fluorimetry (DSF) / fluorescence thermal shift assay; format: binding; settings: 10 µM compound, with NAD+ addition
Procedure: Differential scanning fluorimetry (DSF) assay
Differential scanning fluorimetry assays were performed in white 96-well plates (Hard-Shell PCR Plates, BioRad, USA) with a total volume of 20 µL per well and a final DMSO concentration of 5% (v/v), following a published
A solution of 10 µL SIRT2 (final concentration of 6.0 µM) and SYPRO Orange (5x, Sigma-Aldrich, Germany) in assay buffer (25 mM Tris-HCl, 150 mM NaCl, 1 mM DTT, pH 8.0) was mixed with 10 µL of compound and incubated at 25 °C and 350 rpm for 5 min. Where applicable, NAD+ was added to a final concentration of 2.5 mM. Fluorescence
(C1000 Touch™ Thermal Cycler, CFX96™ Real-Time System, BioRad, USA). Melting temperatures were determined using GraphPad Prism, following a published procedure.[6]

[4] = target: T4, NanoLuc–SIRT2 fusion protein in HEK293T cells; assay: NanoBRET cellular target engagement assay; format: cell-based; settings: without digitonin
Procedure: The NanoBRET target engagement assay was performed as previously described[2] with the modification that stably transfected HEK293T cells expressing the NanoLuc-tagged SIRT250-356 fusion protein were used instead of transient transfection. Briefly, HEK293T-NLuc- SIRT250-356 cells were cultured under standard conditions (37 °C, 5% CO2) in DMEM supplemented with 10% fetal bovine serum, 2 mM glutamine, and 300 µg/mL hygromycin as a selection marker. For the assay, cells were trypsinized, resuspended in Opti-MEM® reduced serum medium, and adjusted to a concentration of 2 × 10^5 cells per mL. […]
µM was used. Serially diluted inhibitor and tracer were added to the cell suspension, and 100 μL were seeded into 96-well white, sterile, nonbinding surface plates. To evaluate the cellular permeability of LTDi-1 (6), the non-ionic detergent digitonin (50 µg/ml) was added. Plates were incubated at 37 °C with 5% CO2 for 2 h. For BRET measurements, NanoBRET NanoGlo Substrate (Promega cat. #N1571) was added to the wells according to the […]
All measurements were performed using the 2102 EnVisionTM Multilabel Reader (PerkinElmer), equipped with a 460 nm filter (donor) and a 615 nm filter (acceptor). The BRET ratio was calculated as the ratio of acceptor to donor signal, and data were normalized to vehicle-treated controls. Apparent intracellular binding affinities (EC50 values) were determined by fitting dose-response curves using nonlinear regression analysis in GraphPad Prism. […]

[5] = target: T5, NanoLuc–SIRT2 fusion protein in HEK293T cells; assay: Kinetic NanoBRET washout assay (target residence time); format: cell-based; settings: 8 µM (10 × EC50), 2 h preincubation, 2 h washout
[6] = target: BT-6 (biotinylated analogue of compound 6); assay: BLI; SIRT2 (25–400 nM) incubated 1 h with BT-6 (500 nM) without NAD+, then immobilised on streptavidin-coated biosensors; dissociation followed
[7] = target: BT-6 (biotinylated analogue of compound 6); assay: BLI; SIRT2 (25–400 nM) incubated 1 h with BT-6 (500 nM) and NAD+ (500 µM), then immobilised on streptavidin-coated biosensors; dissociation followed
[8] = BSA-Assay, 25 °C, read-out: SIRT2 (demyr.) IC50
[9] = 15 min NAD+ preincubation, read-out: IC50, SIRT2 demyristoylation after NAD+ preincubation

IC50 (SIRT2 [1]) [nM] | IC50 (SIRT2 [2]; [8]) [nM] | IC50 (SIRT1) [µM] | IC50 (SIRT3) [µM] | IC50 (SIRT2 [2]; [9]) [nM] | Molecule | also measured
< 100 | 460 ± 40 | 0.23 ± 0.02 | 8.2 ± 0.4 | 36 ± 2 | CCCCCCCCCCCCc1cn(CCCC[C@H](NC(=O)[C@H](CCCCN)NC(C)=O)C(N)=O)nn1 [Compound 6a] | –
< 100 | 1940 ± 510 | 14.2 ± 1.5 | 3.3 ± 0.2 | 760 ± 250 | CCCCCCCCCCCCc1cn(CCC[C@H](NC(=O)[C@H](CCCCN)NC(=O)[C@@H]2CCCN2C(=O)[C@H](CC(C)C)NC(=O)[C@H](C)NC(=O)[C@H](CCC(=O)O)NC(C)=O)C(=O)N[C@H](C(=O)NCC(=O)NCC(N)=O)[C@@H](C)O)nn1 [Compound 5] | ΔTm at 10 µM (SIRT2 [3]): 9.9 °C
– | – | – | – | – | CCCCCCCCCCCCc1cn(CCCC[C@H](NC(=O)[C@H](CCCCN)NC(=O)[C@@H]2CCCN2C(C)=O)C(=O)N[C@H](C(N)=O)[C@@H](C)O)nn1 [Compound 6b] | extent of cellular target engagement [4]: complete target engagement; inhibition after washout [5]: retained full inhibition throughout
– | – | – | – | – | Sirtuin 2 (SIRT2) (enzyme) MAEPDPSHPLETQAGKVQEAQDSDSDSEGGAAGGEADMDFLRNLFSQTLSLGSQKERLLDELTLEGVARYMQSERCRRVICLVGAGISTSAGIPDFRSPSTGLYDNLEKYHLPYPEAIFEISYFKKHPEPFFALAKELYPGQFKPTICHYFMRLLKDKGLLLRCYTQNIDTLERIAGLEQEDLVEAHGTFYTSHCVSASCRHEYPLSWMKEKIFSEVTPKCEDCQSLVKPDIVFFGESLPARFFSCMQSDFLKVDLLLVMGTSLQVQPFASLISKAPLSTPRLLINKEKAGQSDPFLGMIMGLGGGMDFDSKKAYRDVAWLGECDQGCLALAELLGWKKELEDLVRREHASIDAQSGAGVPNPSTSASPKKSPPPAKDEARTTEREKPQ | koff [6]: 0.0071 s⁻¹; koff [7]: 0.00026 s⁻¹

Molecule | IC50 (SIRT2 [1]) [nM] | IC50 (SIRT2 [2]; [8]) [nM] | IC50 (SIRT1) [µM] | IC50 (SIRT3) [µM] | IC50 (SIRT2 [2]; [9]) [nM] | also measured
Cc1cc(C)nc(SCC(=O)Nc2ncc(Cc3cccc(OCc4cn(Cc5ccc(OCCN6CCOCC6)cc5)nn4)c3)s2)n1 [Compound 2, reference compound] | 120 ± 10 | 50 ± 10 | – | – | – | SIRT1 (deac.) IC50 (SIRT1): n.i.; SIRT3 (deac.) IC50 (SIRT3): n.i.
